Where “and” joins values, the source holds several entries; their conditions need not be identical. Equal entries are not always repeated. Values belong to the compound of their own block, whether it stands above or below them.
Key:
PKC-βII = PKC-βII (Homo sapiens, UniProt P05771); assay: Protein Kinase C Histone-Based Assay, isozyme β-II; assay type: biochemical
Description: (§1) Compounds were evaluated for PKC isozyme selectivity using histone III as the substrate. […] 100 μg/mL phosphatidylserine, 20 μg/mL diacylglycerol, 30 μM ATP, 1 μCi [^33P]ATP and 200 μg/mL histone III. The reaction was incubated for 10 min at 30° C. Reactions were terminated by TCA precipitation and spotting on Whatman P81 filters. Filters were washed in 75 mM phosphoric acid and the radioactivity quantified by liquid scintillation counting.

PKC-α = PKC-α (Homo sapiens, UniProt P17252); assay: Protein Kinase C Histone-Based Assay, isozyme α; conditions: for inhibition at 1 µM / inhibition at 10 µM: read-out: PKC-α % inhibition
Description: as §1

[1] = molecular target: T1, recombinant rabbit GSK-3β protein (Oryctolagus cuniculus, UniProt G1T8E2); assay: Glycogen Synthase Kinase-3 Assay (33P phosphorylation of PPI-2); assay type: biochemical; conditions: for inhibition at 0.1 µM: @100 nM; for IC50: two numbers = data obtained on different days; for inhibition at 1 µM: two numbers = different days
T1 construct: purchased New England Biolabs
T1 sequence (G1T8E2 1-432): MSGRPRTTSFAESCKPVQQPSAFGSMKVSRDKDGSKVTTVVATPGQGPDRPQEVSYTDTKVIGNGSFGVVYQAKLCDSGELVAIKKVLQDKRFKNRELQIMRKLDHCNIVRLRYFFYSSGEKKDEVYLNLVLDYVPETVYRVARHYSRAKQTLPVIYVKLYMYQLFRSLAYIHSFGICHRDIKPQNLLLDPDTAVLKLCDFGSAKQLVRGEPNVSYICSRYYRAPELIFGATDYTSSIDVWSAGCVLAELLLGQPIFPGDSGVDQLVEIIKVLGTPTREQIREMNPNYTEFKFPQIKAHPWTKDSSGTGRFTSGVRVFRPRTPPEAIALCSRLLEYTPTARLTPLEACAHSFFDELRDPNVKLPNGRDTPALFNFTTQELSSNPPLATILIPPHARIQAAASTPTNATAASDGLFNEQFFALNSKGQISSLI
Description: Glycogen Synthase Kinase-3 Assay
Compounds were tested for the ability to inhibit recombinant rabbit GSK-3β protein using the following protocol. The test compound was added to a reaction mixture containing Protein Phosphatase Inhibitor-2 (PPI-2) (Calbiochem) (45 ng), rabbit GSK-3β protein (New England Biolabs) (0.75 units) and ^33P-ATP (1 μCi) in 50 mM Tris-HCl (pH 8.0), 10 mM MgCl2, 0.1% BSA, 1 mM DTT and 100 μM Sodium Vanadate. The mixture was reacted for 90 minutes at 30° C. to allow phosphorylation of the PPI-2 protein and then the protein in the reaction was precipitated using 10% TCA. The precipitated protein was collected on filter plates (MultiScreen-DV/Millipore), which were subsequently washed. Finally, the radioactivity was quantified using a TopCount Scintillation Counter (Packard). […] Staurosporine or Valproate, known inhibitors of GSK-3β, were used as a positive control for screening.

PKC-γ = PKC-γ (Homo sapiens, UniProt P05129); assay: Protein Kinase C Histone-Based Assay, isozyme γ; conditions: for inhibition at 1 µM / inhibition at 10 µM: read-out: PKC-γ % inhibition
Description: as §1

Sequence of PKC-βII (P05771 1-673 isoform P05771-2): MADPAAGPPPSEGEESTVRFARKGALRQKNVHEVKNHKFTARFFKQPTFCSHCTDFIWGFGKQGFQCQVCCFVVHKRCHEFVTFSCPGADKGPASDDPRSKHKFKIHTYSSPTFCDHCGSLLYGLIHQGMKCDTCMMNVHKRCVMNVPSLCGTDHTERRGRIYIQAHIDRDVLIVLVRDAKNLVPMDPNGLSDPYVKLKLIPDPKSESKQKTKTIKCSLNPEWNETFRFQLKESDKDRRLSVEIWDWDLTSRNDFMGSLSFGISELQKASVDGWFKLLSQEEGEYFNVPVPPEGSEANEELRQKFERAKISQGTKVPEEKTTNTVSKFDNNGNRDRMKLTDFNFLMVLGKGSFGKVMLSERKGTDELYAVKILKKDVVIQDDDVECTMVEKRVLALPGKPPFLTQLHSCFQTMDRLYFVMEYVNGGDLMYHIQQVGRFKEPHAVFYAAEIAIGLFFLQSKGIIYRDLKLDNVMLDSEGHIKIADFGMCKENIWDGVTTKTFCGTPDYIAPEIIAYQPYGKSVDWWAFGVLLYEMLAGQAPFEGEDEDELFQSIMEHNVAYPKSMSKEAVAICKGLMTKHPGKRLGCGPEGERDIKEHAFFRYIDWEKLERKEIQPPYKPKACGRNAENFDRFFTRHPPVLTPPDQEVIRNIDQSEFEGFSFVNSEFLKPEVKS

Structure (SMILES): O=C1NC(=O)C(c2cn(CCCO)c3ncccc23)=C1c1csc2ccc(Cl)cc12 [Cpd 5, 3-(5-chlorobenzo[b]thien-3-yl)-4-[1-(3-hydroxypropyl)-1H-pyrrolo[2,3-b]pyridin-3-yl]-1H-pyrrole-2,5-dione]
inhibition at 1 µM (PKC-βII): 21% | inhibition at 10 µM (PKC-βII): 81% | inhibition at 1 µM (PKC-α): 0% | inhibition at 10 µM (PKC-α): 34% | inhibition at 0.4 µM ([1]; @400 nM): 56% | inhibition at 1 µM (PKC-γ): 44% | inhibition at 10 µM (PKC-γ): 57%

Structure (SMILES): CN(C)CCCn1cc(C2=C(c3cccc4ccccc34)C(=O)NC2=O)c2cccnc21 [Cpd 4, 3-[1-[3-(dimethylamino)propyl]-1H-pyrrolo[2,3-b]pyridin-3-yl]-4-(1-naphthalenyl)-1H-pyrrole-2,5-dione]
inhibition at 1 µM (PKC-βII): 47% | inhibition at 10 µM (PKC-βII): 84% | inhibition at 1 µM (PKC-α): 0% | inhibition at 10 µM (PKC-α): 34% | inhibition at 0.1 µM [1]: 51% | inhibition at 1 µM (PKC-γ): 48% | inhibition at 10 µM (PKC-γ): 59%

Structure (SMILES): O=C1NC(=O)C(c2cn(CCCO)c3ncccc23)=C1c1ccccc1Cl [Cpd 1, 3-(2-chlorophenyl)-4-[1-(3-hydroxypropyl)-1H-pyrrolo[2,3-b]pyridin-3-yl]-1H-pyrrole-2,5-dione]
inhibition at 1 µM (PKC-βII): 14% | inhibition at 10 µM (PKC-βII): 81% | inhibition at 1 µM (PKC-α): 18% | inhibition at 10 µM (PKC-α): 2% | IC50 [1]: 9 nM and 10 nM | inhibition at 1 µM (PKC-γ): 48% | inhibition at 10 µM (PKC-γ): 43%

Structure (SMILES): O=C1NC(=O)C(c2nn(CCCO)c3ccccc23)=C1c1cn(-c2ccc3ccccc3c2)c2ncccc12 [Cpd 21, 3-[1-(3-hydroxypropyl)-1H-indazol-3-yl]-4-[1-(2-naphthalenyl)-1H-pyrrolo[2,3-b]pyridin-3-yl]-1H-pyrrole-2,5-dione]
IC50 (PKC-βII; histone III substrate): 36 nM | IC50 (PKC-α): 1440 nM | inhibition at 1 µM [1]: 44% | IC50 (PKC-γ): 859 nM

Structure (SMILES): O=C1NC(=O)C(c2cn(CCCO)c3ncccc23)=C1/C=C/c1ccc(F)cc1 [Cpd 22, 3-[(E)-2-(4-fluorophenyl)ethenyl]-4-[1-(3-hydroxypropyl)-1H-pyrrolo[2,3-b]pyridin-3-yl]-1H-pyrrole-2,5-dione]
IC50 [1]: 330 nM

Structure (SMILES): O=C1NC(=O)C(c2cn(CCCO)c3ncccc23)=C1c1cc2n(n1)CCCC2 [Cpd 54, 3-[1-(3-Hydroxy-propyl)-1H-pyrrolo[2,3-b]pyridin-3-yl]-4-(4,5,6,7-tetrahydro-pyrazolo[1,5-a]pyridin-2-yl)-pyrrole-2,5-dione]
IC50 [1]: 232 nM and 161 nM

Structure (SMILES): O=C1NC(=O)C(c2cn(CCCO)c3ncccc23)=C1c1cn(CCO)cn1 [Cpd 19, 3-[1-(2-hydroxyethyl)-1H-imidazol-4-yl]-4-[1-(3-hydroxypropyl)-1H-pyrrolo[2,3-b]pyridin-3-yl]-1H-pyrrole-2,5-dione]
inhibition at 0.2 µM ([1]; @200 nM): 25%

Structure (SMILES): COc1cccc(C2=C(c3cn(CCCO)c4ncccc34)C(=O)NC2=O)c1 [Cpd 9, 3-[1-(3-hydroxypropyl)-1H-pyrrolo[2,3-b]pyridin-3-yl]-4-(3-methoxyphenyl)-1H-pyrrole-2,5-dione]
IC50 [1]: 11 nM

Structure (SMILES): Cn1ccc(C2=C(c3cn(CCC#N)c4ncccc34)C(=O)NC2=O)n1 [Cpd 69, 3-{3-[4-(1-Methyl-1H-pyrazol-3-yl)-2,5-dioxo-2,5-dihydro-1H-pyrrol-3-yl]-pyrrolo[2,3-b]pyridin-1-yl}-propionitrile]
IC50 [1]: 100 nM

Structure (SMILES): O=C1NC(=O)C(c2cn(CCCO)c3ncccc23)=C1c1ccco1 [Cpd 53, 3-Furan-2-yl-4-[1-(3-hydroxy-propyl)-1H-pyrrolo[2,3-b]pyridin-3-yl]-pyrrole-2,5-dione]
IC50 [1]: 211 nM and 143 nM

Structure (SMILES): O=C1NC(=O)C(c2cn(CCCO)c3ncccc23)=C1c1c[nH]c(=O)[nH]c1=O [Cpd 68, 5-{4-[1-(3-Hydroxy-propyl)-1H-pyrrolo[2,3-b]pyridin-3-yl]-2,5-dioxo-2,5-dihydro-1H-pyrrol-3-yl}-1H-pyrimidine-2,4-dione]
inhibition at 1 µM [1]: 43%

Structure (SMILES): O=C1NC(=O)C(c2cn(CCCO)c3ncccc23)=C1c1ccccc1C(F)(F)F [Cpd 11, 3-[1-(3-hydroxypropyl)-1H-pyrrolo[2,3-b]pyridin-3-yl]-4-[2-(trifluoromethyl)phenyl]-1H-pyrrole-2,5-dione]
IC50 [1]: 4 nM

Structure (SMILES): O=C1NC(=O)C(c2cn(CCCO)c3ncccc23)=C1c1ncc[nH]1 [Cpd 17, 3-[1-(3-hydroxypropyl)-1H-pyrrolo[2,3-b]pyridin-3-yl]-4-(1H-imidazol-2-yl)-1H-pyrrole-2,5-dione]
inhibition at 0.1 µM [1]: 19%

Structure (SMILES): CCn1cc(C2=C(c3cn(CCCO)c4ncccc34)C(=O)NC2=O)c2cccnc21 [Cpd 7, 3-(1-ethyl-1H-pyrrolo[2,3-b]pyridin-3-yl)-4-[1-(3-hydroxypropyl)-1H-pyrrolo[2,3-b]pyridin-3-yl]-1H-pyrrole-2,5-dione]
IC50 [1]: 51 nM

Structure (SMILES): O=C1NC(=O)C(c2cn(CCCO)c3ncccc23)=C1c1ccc(F)cc1Cl [Cpd 10, 3-(2-chloro-4-fluorophenyl)-4-[1-(3-hydroxypropyl)-1H-pyrrolo[2,3-b]pyridin-3-yl]-1H-pyrrole-2,5-dione]
IC50 [1]: 10 nM

Second part, the compound after the results:

inhibition at 1 µM (PKC-βII): 49% | inhibition at 10 µM (PKC-α): 26% | IC50 [1]: 2 nM and 3 nM
Structure (SMILES): COc1ccccc1C1=C(c2cn(CCCNC(C)=O)c3ncccc23)C(=O)NC1=O [Cpd 77, N-[3-[3-[2,5-dihydro-4-(2-methoxyphenyl)-2,5-dioxo-1H-pyrrol-3-yl]-1H-pyrrolo[2,3-b]pyridin-1-yl]propyl]-acetamide]

inhibition at 1 µM (PKC-βII): 21% | inhibition at 10 µM (PKC-α): 33% | IC50 [1]: 7 nM and 9 nM | inhibition at 10 µM (PKC-γ): 48%
Structure (SMILES): COc1ccccc1C1=C(c2cn(CCCNC=O)c3ncccc23)C(=O)NC1=O [Cpd 78, N-[3-[3-[2,5-dihydro-4-(2-methoxyphenyl)-2,5-dioxo-1H-pyrrol-3-yl]-1H-pyrrolo[2,3-b]pyridin-1-yl]propyl]-formamide]

inhibition at 1 µM [1]: 54%
Structure (SMILES): COc1ncc(C2=C(c3cn(Cc4ccccc4)c4ncccc34)C(=O)NC2=O)c(OC)n1 [Cpd 72, 3-(1-Benzyl-1H-pyrrolo[2,3-b]pyridin-3-yl)-4-(2,4-dimethoxy-pyrimidin-5-yl)-pyrrole-2,5-dione]

IC50 [1]: 625 nM
Structure (SMILES): O=C1NC(=O)C(c2cn(CCCc3ccccc3)c3ncccc23)=C1c1cnccn1 [Cpd 60, 3-[1-(3-Phenyl-propyl)-1H-pyrrolo[2,3-b]pyridin-3-yl]-4-pyrazin-2-yl-pyrrole-2,5-dione]

IC50 [1]: 36 nM and 35 nM
Structure (SMILES): COc1ncc(C2=C(c3cn(CCCC#N)c4ncccc34)C(=O)NC2=O)c(OC)n1 [Cpd 62, 4-{3-[4-(2,4-Dimethoxy-pyrimidin-5-yl)-2,5-dioxo-2,5-dihydro-1H-pyrrol-3-yl]-pyrrolo[2,3-b]pyridin-1-yl}-butyronitrile]

IC50 [1]: 3 nM
Structure (SMILES): COc1ccccc1C1=C(c2cn(CCCO)c3ncccc23)C(=O)NC1=O [Cpd 8, 3-[1-(3-hydroxypropyl)-1H-pyrrolo[2,3-b]pyridin-3-yl]-4-(2-methoxyphenyl)-1H-pyrrole-2,5-dione]

IC50 [1]: 47 nM and 38 nM
Structure (SMILES): O=C1NC(=O)C(c2cn(CCCO)c3ncccc23)=C1c1ccn(Cc2ccccc2)c1 [Cpd 48, 1′-Benzyl-4-[1-(3-hydroxy-propyl)-1H-pyrrolo[2,3-b]pyridin-3-yl]-1′H-[3,3′]bipyrrolyl-2,5-dione]

IC50 [1]: 100 nM
Structure (SMILES): COc1ncc(C2=C(c3cn(CCc4ccccc4)c4ncccc34)C(=O)NC2=O)c(OC)n1 [Cpd 73, 3-(2,4-Dimethoxy-pyrimidin-5-yl)-4-(1-phenethyl-1H-pyrrolo[2,3-b]pyridin-3-yl)-pyrrole-2,5-dione]

— patent publication US7125878B2, “Substituted pyrroline kinase inhibitors” (Janssen Pharmaceutica, priority 2002, dated 2006)
